Assay results published in patent US20240374523A1, “STABILIZED APILIMOD COMPOSITIONS AND USES THEREOF” (Orphai Therapeutics Inc., priority 2021, published 2024).
In brackets after ≈: the same amount, converted by molar mass. Entries after “also recorded” stand apart in the source; their conditions may differ. Where a name gives a salt, the structure may show the parent alone. Read-outs that look alike come from different tables or passages of the source.

Columns and labels:
[1] = cited from earlier work
[2] = PXRD of residual solids after the IDR experiment; type: physicochemical; conditions: pellet surface after IDR experiment, compared with input API
Procedure: X-Ray Powder Diffraction (XRPD). […] Configuration on the incidental beam side: variable divergence slits (10 mm irradiated length), 0.04 rad Soller slits, fixed anti-scatter slit) (0.50°, and 10 mm beam mask. Configuration on the diffracted beam side: variable anti-scatter slit (10 mm observed length) and 0.02 rad Soller slit. Samples were mounted flat on zero-background Si wafers.
At the end of the IDR analysis, the pellet surface was analyzed by PXRD and compared to its corresponding input API for any physical changes.

[3] = Solubility of apilimod vs pH in 0.1N HCl and Britton-Robinson buffers; type: physicochemical; conditions: for solubility at 3 days / solubility thermodynamic at 3 days: thermodynamic from solid; for solubility thermodynamic at 3 days: Britton-Robinson buffer
Procedure: Next, the solubility of apilimod at various pH was evaluated. The samples were prepared at room temperature in 0.1N HCl (pH 1) and Britton-Robinson buffers (BRB) pH 2, 3, 4, 5, 6, 7 and 8. After 3 days, each sample was centrifuged for 30 min, the solution was filtered and the concentration of apilimod determined by HPLC analysis. HPLC analysis was carried out using an XTerra MS C18 (5 μm 4.6×150 mm) column and 18-minute gradient HPLC conditions.

IL-12/IL-23 synthesis = conditions: oral administration, patients with psoriasis, open-label (Wada et al. 2012); cited from earlier work
active Crohn's disease = active Crohn's disease (Sands et al. 2010); cited from earlier work
[4] = test system: synovial IL-12 and IL-23 expression; conditions: patients with rheumatoid arthritis, Phase II (Krauz et al. 2012); cited from earlier work
[5] = Kinetic solubility in FaSSIF (pH 6.5); type: physicochemical; conditions: FaSSIF pH 6.5, 1 hour
Procedure: Additional kinetic solubility studies were carried out in Fasted State Simulated Intestinal Fluid (FaSSIF) at pH6.5 at ambient temperature and the results are shown in FIG. 3. FaSSIF helps reveal how an oral drug is likely to dissolve and potentially be absorbed in fluid from the upper intestine after drinking a glass of water. […] After 1 hour of stirring, all samples appeared to be hazy suspensions, but after 4 and 24 hours their appearance changed to a milky white suspension by PXRD analysis.

[6] = Kinetic solubility in FaSSGF (pH 1.6); conditions: after test in FaSSGF
Procedure: Kinetic solubility studies were carried out on the various apilimod salts provided in Table 1 in Fasted State Simulated Gastric Fluid (FaSSGF) at pH 1.6 at ambient temperature. FaSSGF is a dissolution medium that has the average acidic pH and similar osmolarity of fasted gastric fluid. FaSSGF that can help reveal how an oral drug is likely to behave in the stomach after drinking a glass of water. The stability, solubility and dissolution data generated from testing in FaSSGF can help identify critical factors influencing a drug's absorption in the fasted state, and in turn facilitate the selection of the appropriate solid state and formulation approach for a drug.

[7] = Intrinsic dissolution rate (stationary disk, 0.01N HCl); type: physicochemical; set-up: Intrinsic Dissolution Rate free base equivalent: unit not given here; conditions: 37° C.; for Intrinsic Dissolution Rate free base equivalent: disk pressed at 3900 psi, 700 mL 0.01N HCl, paddle 50 rpm, UV 333 nm
Procedure: Stationary disks for apilimod free base and the nine apilimod salts were prepared. Intrinsic dissolution rate of the free base and the nine salts were prepared from preparations at 3900 psi. Each disk was placed into a flat bottom vessel containing 700 mL of 0.01N HCl medium equipped with a Distek Dissolution bath, and a Distek cirvulator/heater set to 37°° C. with a paddle speed of 50 rpm. The Opt-Diss 405 system single analytical wavelength settings was 333 nm with a background wavelength setting of 400 nm and reading were taken every 1 minute to 35 minutes. […] The kinetic solubility of the salt behavior is unpredictable and the dramatic difference between the non-mesylate salts was an unexpected discovery in the behavior of the salts.

[8] = aqueous solubility of the disalt; cited from earlier work
[9] = pKa of the counter-acid, not of the apilimod salt

1-hydroxy-2-naphthoate
pKa of Acid (first value) [1, 9]: 2.7
pKa of Acid (second value) [1, 9]: 13.5

Cc1cccc(/C=N/Nc2cc(N3CCOCC3)nc(OCCc3ccccn3)n2)c1 [Apilimod]
Residual Solids By XRPD ([2]; listed as Free base): Matches Input
Residual Solids By XRPD ([2]; listed as free base): match the XRPD pattern of the initial input material
solubility at 3 days ([3]; 0.1N HCl, pH 1, simulated gastric fluid, pH of approximately 1, read-out: solubility): > 10000 µg/mL
PXRD of Residuals Day 3 ([3]; BRB pH 2): Phosphate salt
Conc Day 3 ([3]; BRB pH 2, medium pH 1.99, prep. 11 mg/mL, room temperature, Day 3 pH 2.75): 137 µg/mL
PXRD of Residuals Day 3 ([3]; BRB pH 3): Phosphate salt
PXRD of Residuals Day 3 ([3]; BRB pH 4): Free base, hydrate Group B
PXRD of Residuals Day 3 ([3]; BRB pH 5): Free base, hydrate Group B
PXRD of Residuals Day 3 ([3]; BRB pH 6): Free base, hydrate Group B
PXRD of Residuals Day 3 ([3]; BRB pH 7): Free base, hydrate Group B
PXRD of Residuals Day 3 ([3]; BRB pH 8): Free base, hydrate Group B
solubility thermodynamic at 3 days ([3]; aqueous buffer, BRB pH 2, medium pH 1.99, prep. 11 mg/mL, room temperature, Day 3 pH 2.75, read-out: Conc Day 3): 137 µg/mL (≈ 327 µM)
solubility thermodynamic at 3 days ([3]; aqueous buffer, BRB pH 3, medium pH 2.88, prep. 2.8 mg/mL, room temperature, Day 3 pH 3.61, read-out: Conc Day 3): 17.3 µg/mL (≈ 41.3 µM)
solubility thermodynamic at 3 days ([3]; aqueous buffer, BRB pH 4, medium pH 4.11, prep. 2.8 mg/mL, room temperature, Day 3 pH 4.22, read-out: Conc Day 3): 2.3 µg/mL (≈ 5.5 µM)
solubility thermodynamic at 3 days ([3]; aqueous buffer, BRB pH 5, medium pH 5.04, prep. 2.8 mg/mL, room temperature, Day 3 pH 5.08, read-out: Conc Day 3): 0.2 µg/mL (≈ 0.478 µM)
solubility thermodynamic at 3 days ([3]; aqueous buffer, BRB pH 6, medium pH 6.15, prep. 2.7 mg/mL, room temperature, Day 3 pH 6.18, read-out: Conc Day 3): < 0.1 µg/mL
solubility thermodynamic at 3 days ([3]; aqueous buffer, BRB pH 7, medium pH 7.18, prep. 2.7 mg/mL, room temperature, Day 3 pH 7.21, read-out: Conc Day 3): < 0.1 µg/mL
solubility thermodynamic at 3 days ([3]; pH 7.9, aqueous buffer, BRB pH 8, medium pH 7.90, prep. 2.8 mg/mL, room temperature, Day 3 pH 8.01, read-out: Conc Day 3): < 0.1 µg/mL
PXRD of Residuals Day 3 ([3]; pH 1 (0.1N HCl)): In solution; no excess solid
solubility at 3 days ([3]; simulated gastric fluid, pH 1 (0.1N HCl), medium pH 1.08, prep. 11 mg/mL, room temperature, Day 3 pH 1.44, read-out: Conc Day 3): > 10700 µg/mL
immunomodulatory activity (IL-12/IL-23 synthesis): showed immunomodulatory activity supporting the inhibition of IL-12/IL-23 synthesis
efficacy over placebo (active Crohn's disease): did not demonstrate efficacy over placebo
tolerability (active Crohn's disease): well tolerated
effect on synovial IL-12 and IL-23 expression [4]: failed to alter synovial IL-12 and IL-23 expression

Cc1cccc(/C=N/Nc2cc(N3CCOCC3)nc(OCCc3ccccn3)n2)c1 [HCl]
Residual Solids By XRPD [2]: match the XRPD pattern of the initial input material; also recorded: Matches Input
solubility in FaSSIF relative to other forms [5]: higher solubility at 1 hour compared to the other salts and the freebase
pKa of acid ([1]; strong acids required for disalt formation, per the '436 patent): −4.5

Cc1cccc(/C=N/Nc2cc(N3CCOCC3)nc(OCCc3ccccn3)n2)c1.Cc1cccc(/C=N/Nc2cc(N3CCOCC3)nc(OCCc3ccccn3)n2)c1.O=C(O)/C=C/C(=O)O [Hemi-fumarate]
Residual Solids By XRPD [2]: Matches Input
Residual Solids By XRPD ([2]; listed as hemi-fumarate): match the XRPD pattern of the initial input material
residues by powder diffraction (PXRD) [6]: crystalline, and matched input salts
intrinsic dissolution rate relative to D/L-Lactate and HCl salts ([7]; 0.01N HCl): less that 10-times lower
pKa of Acid (first value) [1, 9]: 3.0
pKa of Acid (second value) [1, 9]: 4.4

Cc1cccc(/C=N/Nc2cc(N3CCOCC3)nc(OCCc3ccccn3)n2)c1.O=C(O)CC(=O)O [Malonate]
Residual Solids By XRPD [2]: Matches Input
Residual Solids By XRPD ([2]; listed as malonate): match the XRPD pattern of the initial input material
pKa of Acid (first value) [1, 9]: 2.8
pKa of Acid (second value) [1, 9]: 5.7

Cc1cccc(/C=N/Nc2cc(N3CCOCC3)nc(OCCc3ccccn3)n2)c1.O=P(O)(O)O [Phosphate]
Residual Solids By XRPD [2]: Matches Input
Residual Solids By XRPD ([2]; listed as phosphate): match the XRPD pattern of the initial input material
pKa of Acid (first value) [1, 9]: 2.0
pKa of Acid (second value) [1, 9]: 7.1
pKa of Acid (third value) [1, 9]: 12.3

Cc1cccc(/C=N/Nc2cc(N3CCOCC3)nc(OCCc3ccccn3)n2)c1.O=C(O)CCC(=O)O [Succinate]
pKa of Acid (first value) [1, 9]: 4.2
pKa of Acid (second value) [1, 9]: 5.6

Cc1cccc(C=NNc2cc(N3CCOCC3)nc(OCCc3ccccn3)n2)c1.Cl.Cl [dichloride]
solubility in water [8]: 213000 µg/mL

Glycolate
Residual Solids By XRPD [2]: consistent with the input material and the poorly crystalline phase
Intrinsic Dissolution Rate free base equivalent [7]: 0.2670
pKa of Acid (first value) [1, 9]: 3.3

L-Tartrate
Residual Solids By XRPD [2]: match the XRPD pattern of the initial input material; also recorded: Matches Input
Intrinsic Dissolution Rate free base equivalent [7]: 0.3399
pKa of Acid (first value) [1, 9]: 3.0
pKa of Acid (second value) [1, 9]: 4.4

Maleate
Residual Solids By XRPD [2]: Matches Input
Residual Solids By XRPD ([2]; listed as maleate): match the XRPD pattern of the initial input material
residues by powder diffraction (PXRD) [6]: crystalline, and matched input salts
Intrinsic Dissolution Rate free base equivalent [7]: 0.0871
pKa of Acid (first value) [1, 9]: 1.9
pKa of Acid (second value) [1, 9]: 6.2
